# Reference: US20030228581A1, “Diagnosis and treatment for late onset neurodegenerative disorder” (priority 2002, published 2003)
# Columns and labels:
# [1] = test system: Hq mutant and wild type granule cells; set-up: dose or concentration left out as unconfirmed; conditions: 24 hours
# [2] = test system: primary neuronal granule cell cultures from Hq mutant mice; assay: Glutamate sensitivity of primary granule cell cultures; assay type: cell-based, mouse; set-up: unit of the concentration uncertain
# Source text: Low doses of glutamate cause neuronal excitotoxicity via NMDA receptors, while higher doses of glutamate trigger intracellular oxidative stress through the release of endogenous peroxides.
# [3] = test system: mutant and wildtype embryonic cortical cells; conditions: hydrogen peroxide for 24 hours, any peroxide concentration
# Experimental: To determine if increased peroxide sensitivity due to loss of wild-type levels of AIF is cell-specific, primary cultures of mutant and wildtype embryonic cortical cells were treated under the identical conditions used for granule cell cultures.
# [4] = test system: primary neuronal granule cell cultures from Hq mutant mice; conditions: 20 and 50 mM hydrogen peroxide, 5 hours, PI staining
# Experimental: To determine if decrease in AIF levels leads to increased sensitivity to exogenous peroxides, primary neuronal granule cell cultures from Hq mutant mice were treated with increasing doses of hydrogen peroxide (0, 5, 20, 50 mM) for 5 hours and then stained with propidium iodide (PI) to identify apoptotic cells.
smiles,measurement,setting,value
COc1cc([C@@H]2c3cc4c(cc3[C@@H](O[C@@H]3O[C@@H]5CO[C@@H](C)O[C@H]5[C@H](O)[C@H]3O)[C@H]3COC(=O)[C@H]23)OCO4)cc(OC)c1O [etoposide],"cell death, Hq mutant versus wild type granule cells",[1],no significant difference in cell death
N[C@@H](CCC(=O)O)C(=O)O [glutamate],Hq mutant granule cell death,[2]; higher doses of glutamate (2000 (unit uncertain)),significant increases in Hq mutant granule cell death
same,"cell viability, mutant versus wild type granule cells",[2]; low concentrations of glutamate (100 (unit uncertain)),Cell viability was similar
OO [hydrogen peroxide],"viability, mutant versus wild type cortical cells",[3],no difference in viability
same,"cell death, Hq mutant versus wild-type cultures",[4],Significantly more cell death
CN[C@@H]1C[C@H]2O[C@@](C)([C@@H]1OC)n1c3ccccc3c3c4c(c5c6ccccc6n2c5c31)C(=O)NC4 [staurosporine],"cell death, Hq mutant versus wild type granule cells",[1],no significant difference in cell death
